# Reference: patent US10828300B2, “Substituted 2,4-diaminopyrimidines as kinase inhibitors” (Celgene CAR LLC, priority 2008, dated 2020)
# Experiments:
# [1] = target: T1, BTK (Homo sapiens (Human), UniProt Q06187); assay: Mass spectrometry for BTK (intact protein, covalent modification); assay type: binding; conditions: intact BTK, 1 hr, 10× fold excess of compound
# Description: Mass Spectrometry for BTK
# Intact BTK was incubated for 1 hr at a 10× fold excess of I-7 to protein. Aliquots (2 μl) of the samples were diluted with 10 μl of 0.1% TFA prior to micro C4 ZipTipping directly onto the MALDI target using Sinapinic acid as the desorption matrix (10 mg/ml in 0.1% TFA:Acetonitrile 20:80).
# [2] = target: T1, BTK; assay: Washout experiment with Ramos cells (PLCγ2 phosphorylation); assay type: cell-based; conditions: Ramos washout assay, 100 nM compound for 1 hour
# Description: Washout Experiment with Ramos Cells
# Ramos cells were serum starved for one hour in RPMI media +1% glutamine at 37° C. After starvation, Ramos cells were treated with 100 nM compound diluted in serum free RPMI media for 1 hour. After compound treatment, the media was removed and cells were washed with compound-free media. Subsequently, Ramos cells were washed every 2 hours and resuspended in fresh compound-free media. Cells were collected at specified timepoints, treated with 1 ug anti-human IgM (Southern Biotech cat #2022-01) for 10 minutes on ice to induce BCR signaling and then washed in PBS. Ramos cells were then lysed in Cell Extraction Buffer (Invitrogen FNN0011) supplemented with Roche complete protease inhibitor tablets (Roche 11697498001) and phosphatase inhibitors (Roche 04 906 837 001) and 18 ug total protein lysate was loaded in each lane. Inhibition of BTK kinase activity was assayed by measuring its substrate (PLCγ2) phosphorylation by western blot with phospho-specific antibodies from Cell Signaling Technologies cat#3871. The results of this experiment with compounds I-2, I-4 and I-7 are depicted in FIGS. 1, 2 and 3.
# [3] = target: T1, BTK; assay: BTK occupancy from in vitro samples by ELISA (Ramos cells, probe I-215); assay type: cell-based; conditions: probe I-215 ELISA
# From the text: Measuring BTK occupancy from in vitro samples by ELISA
# In order to determine the amount of free BTK in cell or tissue lysates, an ELISA protocol was employed that utilizes a biotinylated probe compound that binds only to free, unoccupied BTK. The conjugated biotin is captured on a streptavidin-coated ELISA plate and detected with a mouse anti-BTK antibody (Becton Dickinson, Franklin Lakes, N.J., USA) and a secondary goat anti-mouse HRP antibody (Zymed, South San Francisco, Calif., USA).
# All samples were prepared with equal concentrations of Biorad lysis buffer (Hercules, Calif., USA), 0.5% bovine serum albumin in PBS with 0.05% Tween-20 to give a final concentration of 1 μM I-215. Samples were incubated in a mixing plate for 1 hr at room temperature while shaking to allow probe compound I-215 to bind to free BTK. After incubation with I-215, samples were added to a washed, streptavidin-coated ELISA plate (Pierce, Rockford, Ill., USA) and incubated for 1 hr at room temperature while shaking. The plate was then washed with PBS containing 0.05% Tween-20 using an automatic plate washer. Anti-BTK antibody was prepared at 1:1000 dilution in 0.5% BSA in PBS (0.05% Tween-20) and added to the ELISA plate. The plate was incubated for 1 hr at room temperature while shaking. The plate was washed as described above and the secondary HRP antibody was prepared at 1:5000 dilution in 0.5% BSA in PBS (0.05% Tween-20). The plate was incubated and washed as described above. TMB was added to the plate, and OD650 was monitored until reaching 1 OD unit. The reaction was then stopped with addition of H2SO4. The plate was analyzed using Gen 5 software, and a 4 Parameter Logistic curve was employed to quantitate samples. Recombinant BTK (Invitrogen, Carlsbad, Calif., USA) was used for the standard curve.
# A concentration designated as “A” is greater than 1 nM; a concentration designated as “B” is greater than 10 nM; and a concentration designated as “C” is greater than 50 nM.
# T1 sequence (Q06187 whole entry): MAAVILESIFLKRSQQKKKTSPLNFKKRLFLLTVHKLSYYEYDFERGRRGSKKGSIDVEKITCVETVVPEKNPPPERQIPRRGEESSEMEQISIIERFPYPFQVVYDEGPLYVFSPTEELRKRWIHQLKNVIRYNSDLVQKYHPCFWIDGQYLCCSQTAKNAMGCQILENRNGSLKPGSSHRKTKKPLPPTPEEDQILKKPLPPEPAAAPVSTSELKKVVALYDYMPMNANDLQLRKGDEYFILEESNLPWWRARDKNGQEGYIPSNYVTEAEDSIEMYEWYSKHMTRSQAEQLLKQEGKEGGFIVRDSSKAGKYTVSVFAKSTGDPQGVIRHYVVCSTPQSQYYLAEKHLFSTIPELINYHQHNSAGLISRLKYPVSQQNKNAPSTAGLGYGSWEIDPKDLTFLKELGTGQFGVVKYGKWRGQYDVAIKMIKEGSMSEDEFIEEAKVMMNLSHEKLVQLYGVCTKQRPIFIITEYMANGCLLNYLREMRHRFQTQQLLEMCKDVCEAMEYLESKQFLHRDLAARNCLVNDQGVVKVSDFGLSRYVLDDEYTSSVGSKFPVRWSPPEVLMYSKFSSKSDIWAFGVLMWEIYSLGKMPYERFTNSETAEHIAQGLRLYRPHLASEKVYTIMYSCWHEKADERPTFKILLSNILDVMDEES
covalent modification of BTK by mass spectrometry [1],BTK Inhibition Type [2],Compound,other results
,irreversible,"C=CC(=O)Nc1cccc(Nc2nc(Nc3ccccc3)ncc2F)c1 [Compound I-28, N-(3-(5-fluoro-2-(phenylamino)pyrimidin-4-ylamino)phenyl)acrylamide]",
completely modify,,"C=C(C#N)C(O)c1cccc(Nc2nc(Nc3ccc(OCCOC)cc3)ncc2F)c1 (centres unmarked) [Compound I-71, 2-((3-(5-fluoro-2-(4-(2-methoxyethoxy)phenylamino)pyrimidin-4-ylamino)phenyl)(hydroxy)methyl)acrylonitrile]",
completely modify,,"C=CC(=O)N1CCC[C@@H](Nc2nc(Nc3cccc(OC)c3)ncc2F)C1 [Compound I-195, (R)-1-(3-(5-fluoro-2-(3-methoxyphenylamino)pyrimidin-4-ylamino)piperidin-1-yl)prop-2-en-1-one]",
completely modify,,"C=CC(=O)N(C)Cc1ccc(Nc2nc(Nc3ccccc3)ncc2C)cc1 [Compound I-219, N-methyl-N-(4-(5-methyl-2-(phenylamino)pyrimidin-4-ylamino)benzyl)acrylamide]",
,irreversible,"C=CC(=O)Nc1cccc(Oc2nc(Nc3ccccc3)ncc2F)c1 [Compound I-228, N-(3-(5-fluoro-2-(phenylamino)pyrimidin-4-yloxy)phenyl)acrylamide]",
,irreversible,"C=CC(=O)Nc1cccc(Nc2nc(Nc3ccc(F)cc3)ncc2F)c1 [Compound I-247, N-(3-(5-fluoro-2-(4-fluorophenylamino)pyrimidin-4-ylamino)phenyl)acrylamide]",

# Continued, compound first:
Compound,covalent modification of BTK by mass spectrometry [1],BTK Inhibition Type [2],other results
2-((4-(5-fluoro-2-(3-trifluoromethoxyphenylamino)pyrimidin-4-ylamino)phenyl)(hydroxy)methyl)acrylonitrile [Compound I-163],completely modify,,
"C#CCOc1cccc(Nc2ncc(C)c(Nc3cccc(NC(=O)C=C)c3)n2)c1 [Compound I-35, N-(3-(5-methyl-2-(3-(prop-2-ynyloxy)phenylamino)pyrimidin-4-ylamino)phenyl) acrylamide]",,irreversible,
"Cc1cnc(Nc2ccccc2)nc1Nc1cccc(NC(=O)/C=C/CN(C)C)c1 [Compound I-38, (E)-4-(dimethylamino)-N-(3-(5-methyl-2-(phenylamino)pyrimidin-4-ylamino)phenyl)but-2-enamide]",,reversible,
"C=CC(=O)Nc1cccc(Nc2nc(Nc3ccc(OCCOC)c(F)c3)ncc2F)c1 [Compound I-96, N-(3-(2-(3-fluoro-4-(2-methoxyethoxy)phenylamino)-5-fluoropyrimidin-4-ylamino)phenyl)acrylamide]",completely modify,,concentration at which >50% of BTK is occupied [3]: A (greater than 1 nM); concentration at which >90% of BTK is occupied [3]: B (greater than 10 nM)
"C=CC(=O)N1CCOc2ccc(Nc3ncc(F)c(Nc4cccc(Cl)c4)n3)cc21 [Compound I-149, 1-(6-(4-(3-chlorophenylamino)-5-fluoropyrimidin-2-ylamino)-2H-benzo[b][1,4]oxazin-4(3H)-yl)prop-2-en-1-one]",completely modify,,
"C=C(C#N)C(O)c1ccc(Nc2nc(Nc3ccccc3)ncc2F)cc1 (centres unmarked) [Compound I-161, 2-((4-(5-fluoro-2-(phenylamino)pyrimidin-4-ylamino)phenyl)(hydroxy)methyl)acrylonitrile]",completely modify,,
"C=CC(=O)Nc1cccc(Nc2nc(Nc3ccc(OCCOC)cc3)ncc2F)c1 [Compound I-182, N-(3-(5-fluoro-2-(4-(2-methoxyethoxy)phenylamino)pyrimidin-4-ylamino)phenyl)acrylamide]",completely modify,,concentration at which >50% of BTK is occupied [3]: A (greater than 1 nM); concentration at which >90% of BTK is occupied [3]: C (greater than 50 nM)
CC(C)=CC(=O)c1cccc(Nc2nc(Nc3cccc(OCCN(C)C)c3)ncc2F)c1 [Compound I-207],completely modify,,
"C=CC(=O)Nc1cccc(Nc2nc(Nc3ccccc3)ncc2C(N)=O)c1 [Compound I-230, 4-(3-acrylamidophenylamino)-2-(phenylamino)pyrimidine-5-carboxamide]",,irreversible,
"C=CC(=O)Nc1cccc(Nc2nc(Nc3cccc(OC)c3)ncc2C(F)(F)F)c1 [Compound I-242, N-(3-(5-trifluoromethyl-2-(3-methoxyphenylamino)pyrimidin-4-ylamino)phenyl)acrylamide]",,irreversible,
"C=CC(=O)Nc1cccc(Nc2nc(Nc3ccc(OC)nc3)ncc2F)c1 [Compound I-243, N-(3-(5-fluoro-2-(6-methoxypyridin-3-ylamino)pyrimidin-4-ylamino)phenyl)acrylamide]",,irreversible,
"C=CC(=O)Nc1cccc(Nc2nc(Nc3cccc(OC(F)(F)F)c3)ncc2F)c1 [Compound I-244, N-(3-(5-fluoro-2-(3-(trifluoromethoxy)phenylamino)pyrimidin-4-ylamino)phenyl)acrylamide]",completely modify,,
"C=CC(=O)Nc1cccc(Oc2nc(Nc3ccccc3)ncc2C)c1 [Compound I-248, N-(3-(5-methyl-2-(phenylamino)pyrimidin-4-yloxy)phenyl)acrylamide]",,irreversible,
